Data from patent US20220183287A1, “METHODS FOR KILLING PESTS” (The United States of America, as represented by the …, priority 2020, published 2022).

Columns and labels:
[1] = system: cucumber (Cucumis sativus) plants; experiment: Greenhouse trial: cucumber plant vigor in treated soil; details: for Root weight Trials 1 & 2: 27-28 ml per 300 grams soil; for Shoot fresh weight Trial 1 / Shoot height Trial 1: 27 ml per 300 grams soil; for Shoot fresh weight Trial 2 / Shoot height Trial 2: 28 ml per 300 grams soil
Description: Greenhouse trials: Selected compounds and combinations were tested for effects on plant growth and on numbers of galls produced by M. incognita infecting cucumber (Cucumis sativus) plants in pots. Cucumber “Sweet Slice” seeds were planted in ProMix in 6-pack cell trays. Treatments were mixed into loamy sand at 27 ml (Trial 1) and 28 ml (Trial 2) per 300 grams soil. Meloidogyne incognita eggs were mixed into soil for a final inoculum of 5,000 per pot. Each pot received 300 grams soil per treatment, with 4 replicates per treatment in each of two trials. Pots were covered with black plastic and periodically watered to keep the soil moist. Two weeks later, one 14-day old cucumber seedling was transplanted into each pot. Two weeks after transplant, the plants were harvested. Root and shoot measurements were recorded and root galls were counted.
Statistical analyses: The data were analyzed as either a general linear model using JMP or a generalized linear model for the best distribution to fit the residual using Proc Glimmix (Sas Institute). The assumptions of the model were checked. If not met, then appropriate statistical techniques were used so that data could met the assumptions of the models. In Sas, mean comparisons were done with Sidak adjusted p-values to hold the experiment-wise error at 0.05. As indicated in the footnote to Table 5, an analysis from greenhouse trials was conducted with JMP using a Wilcoxon test with each pair nonparametric multiple comparisons (P≤0.05).
Table 5 legend: a) treatments were added at a rate of 27 ml (Trial 1) and 28 ml (Trial 2) per 300 grams soil. Four replicate pots, each containing 300 grams soil, were used per treatment in each trial. Meloidogyne incognita was mixed into soil for a final inoculum of 5,000 eggs per pot. Two weeks after soil treatment, one 14-day old cucumber seedling was transplanted into each pot. […] Untransformed data are presented to show actual numbers on roots; e) compounds differ from each other in number of carbons of aliphatic ester moiety. The number of carbons is indicated in parentheses.

M. incognita juveniles = details: MB isolated from Buddleja crispa; laboratory assays; cited from earlier work

SMILES	Root weight Trials 1 & 2 ([1]; 0.05%)	Shoot fresh weight Trial 1 ([1]; 0.05%)	Shoot height Trial 1 ([1]; 0.05%)	Shoot fresh weight Trial 2 ([1]; 0.05%)	Shoot height Trial 2 ([1]; 0.05%)	Root weight Trials 1 & 2 ([1]; 0.1%)	Shoot fresh weight Trial 1 ([1]; 0.1%)	Shoot height Trial 1 ([1]; 0.1%)	Shoot fresh weight Trial 2 ([1]; 0.1%)	Shoot height Trial 2 ([1]; 0.1%)	nematocidal activity (M. incognita juveniles)
CCOC(=O)c1ccccc1 [EB, Ethyl benzoate]	3.2 ^ab g	2.8 ^a g	7.1 ^ab cm	4.7 ^a g	7.5 ^a cm	3.1 ^ab g	3.0 ^a g	6.4 ^b cm	4.0 ^ab g	8.1 ^a cm	–
COC(=O)c1cccc(C)c1 [M3MB, Methyl 3-methylbenzoate]	3.3 ^a g	3.3 ^a g	6.8 ^ab cm	4.3 ^ab g	7.9 ^a cm	–	3.2 ^a g	6.9 ^ab cm	3.6 ^ab g	7.2 ^a cm	–
COC(=O)c1ccccc1 [MB, Methyl benzoate]	3.0 ^ab g	3.2 ^a g	7.7 ^ab cm	3.9 ^ab g	8.0 ^a cm	2.9 ^ab g	3.0 ^a g	7.2 ^ab cm	4.0 ^ab g	8.3 ^a cm	demonstrated nematocidal activity
C=COC(=O)c1ccccc1 [VB, Vinyl benzoate]	3.1 ^ab g	3.2 ^a g	6.7 ^ab cm	4.3 ^ab g	8.3 ^a cm	–	3.0 ^a g	7.2 ^ab cm	3.1 ^b g	6.8 ^a cm	–
